Laboratory results reported in US12383534B2, “Methods for treating cancer” (REGENTS OF THE UNIVERSITY OF MINNESOTA, priority 2021, dated 2025).

Assays:
NCC-CDS-X1 cells = experiment: Immunofluorescence for Ki-67 in NCC-CDS-X1 cells; format: cell-based, human; conditions: NCC-CDS-X1, 24 hours, 0.3 μM
Protocol: (§1) For western blot analyses, cells were lysed with RIPA buffer supplemented with protease inhibitor cocktail (Complete, Roche), and proteins were separated on 10% SDS-PAGE gels, then transferred to PVDF membranes. Antibodies were diluted in 5% skim milk in TBST and incubated overnight at 4° C. or 1 hour at RT. An appropriate secondary HRP conjugated antibody was incubated for 1 hour at RT. Membranes were then washed with TBST, and signal was visualized using Pierce ECL western blotting substrate (Thermo Scientific). For immunofluorescence, cells cultured in 96 well plates were fixed in 4% PFA for 10 min., washed twice with PBS, permeabilized with 0.3% Triton X for 30 min, and blocked with 3% BSA for 1 hour at R/T. Primary antibodies were diluted in 3% BSA and incubated o/n at 4° C. An appropriate conjugated secondary antibody was applied for 60 min at RT. Nuclei were visualized using DAPI (1:5000, Sigma). […]

[1] = test system: global H3K18 and H3K27 acetylation (p300/CBP); experiment: Western blot for acetylated H3K18 and H3K27 in cell lines overexpressing CIC-DUX4; format: cell-based, mouse and human; conditions: all analyzed CIC-DUX4 overexpressing cell lines, 18 hours
Protocol: as §1

In the case of `CNC(=O)Cn1cc(-c2ccc3c(c2)[C@H](F)C[C@]32NC(=O)N(CC(=O)N(Cc3ccc(F)cc3)[C@@H](C)C(F)(F)F)C2=O)cn1` (single isomer, unassigned) [iP300w], the Ki-67 positive staining (NCC-CDS-X1 cells) was “almost complete absence of Ki-67 positive staining” and the “effect on CIC-DUX4-induced global H3K18 and H3K27 acetylation” value [1] was “abolished”.
